Counter-ions that a name gives are not always drawn.
Each molecule was assayed against human cloned 5-HT6 receptors (Homo sapiens, UniProt P50406).
Sequence of human cloned 5-HT6 receptors (P50406 whole entry): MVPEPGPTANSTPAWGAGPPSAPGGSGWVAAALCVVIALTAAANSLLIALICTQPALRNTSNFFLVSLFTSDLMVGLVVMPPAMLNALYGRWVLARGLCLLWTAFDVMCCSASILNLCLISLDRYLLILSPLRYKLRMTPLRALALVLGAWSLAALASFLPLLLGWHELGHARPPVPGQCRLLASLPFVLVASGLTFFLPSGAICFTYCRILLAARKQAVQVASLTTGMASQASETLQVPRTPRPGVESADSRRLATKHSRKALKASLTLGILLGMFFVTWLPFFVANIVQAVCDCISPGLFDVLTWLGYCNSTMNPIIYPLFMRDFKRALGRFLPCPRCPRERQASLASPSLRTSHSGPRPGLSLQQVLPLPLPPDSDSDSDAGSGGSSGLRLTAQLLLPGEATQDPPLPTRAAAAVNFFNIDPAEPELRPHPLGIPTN

Ki [nM]	SMILES
3.8	CN1CCC(c2n[nH]c3ccc(S(=O)(=O)c4cccc5ccccc45)cc23)CC1 [Example 4, 3-(1-Methylpiperidin-4-yl)-5-(1-naphthylsulfonyl)-1H-indazole hydrochloride]
55	CN1CCC(c2n[nH]c3ccc(S(=O)(=O)c4ccccc4)cc23)CC1 [Example 5, 3-(1-methylpiperidin-4-yl)-5-(phenylsulfonyl)-1H-indazole]
93	CN1CCC(c2n[nH]c3ccc(S(=O)(=O)c4cccc(F)c4)cc23)CC1 [Example 6, 5-[(3-fluorophenyl)sulfonyl]-3-(1-methylpiperidin-4-yl)-1H-indazole]
19	CN1CCC(c2n[nH]c3ccc(S(=O)(=O)c4cccc(Cl)c4)cc23)CC1 [Example 7, 5-[(3-chlorophenyl)sulfonyl]-3-(1-methylpiperidin-4-yl)-1H-indazole]
66	CN1CCC(c2n[nH]c3ccc(S(=O)(=O)c4ccc(F)cc4)cc23)CC1 [Example 8, 5-[(4-fluorophenyl)sulfonyl]-3-(1-methylpiperidin-4-yl)-1H-indazole]
50	Cc1cccc(S(=O)(=O)c2ccc3[nH]nc(C4CCN(C)CC4)c3c2)c1 [Example 9, 5-[(3-methylphenyl)sulfonyl]-3-(1-methylpiperidin-4-yl)-1H-indazole]
46	CN1CCC(c2n[nH]c3ccc(S(=O)(=O)c4ccc(C(F)(F)F)cc4)cc23)CC1 [Example 10, 3-(1-methylpiperidin-4-yl)-5-{[4-(trifluoromethyl)phenyl]sulfonyl}-1H-indazole]
48	CN1CCC(c2n[nH]c3ccc(S(=O)(=O)c4ccc(OC(F)(F)F)cc4)cc23)CC1 [Example 11, 3-(1-methylpiperidin-4-yl)-5-{[4-(trifluoromethoxy)phenyl]sulfonyl}-1H-indazole]
14	CC(C)c1ccc(S(=O)(=O)c2ccc3[nH]nc(C4CCN(C)CC4)c3c2)cc1 [Example 12, 5-[4-(isopropylphenyl)sulfonyl]-3-(1-methylpiperidin-4-yl)-1H-indazole]
9.6	CN1CCC(c2n[nH]c3ccc(S(=O)(=O)c4ccc5ccccc5c4)cc23)CC1 [Example 13, 3-(1-methylpiperidin-4-yl)-5-(2-naphthylsulfonyl)-1H-indazole]
123	COc1ccc(S(=O)(=O)c2ccc3[nH]nc(C4CCN(C)CC4)c3c2)cc1 [Example 14]
